What was measured:
[1] = system: SD rats; conditions: rat, in vivo; for MLD: iv
[2] = system: SD rats; test: TC-ED50 after single intravenous injection (Table 2; method not described); assay type: in vivo
[3] = system: SD rats; test: animal or person; assay type: in vivo; conditions: rat, in vivo, iv

SMILES	TI [1]	MLD [1] [mg/kg]	TC-ED50 [2] [mg/kg]	Minimal effective analgesic dose [3] [mg/kg]	Minimal effective anesthetic dose [3] [mg/kg]	Onset time [3] [min]	Righting feflex duration [3] [min]	Sedation Duration [3] [min]
CCC(=O)OCC1N=C(c2ccccn2)c2cc(Br)ccc2-n2c(C)cnc21 (stereo not shown) [Compound 98]	6.0	30	22.0	20	5.0	0.5 to 0.6	11.6 to 17.4	72.5 to 208.7
CC(C)OC(=O)OCC1N=C(c2ccccn2)c2cc(Br)ccc2N(C)C1=O (stereo not shown) [Compound 55]	>20. 0	>20	15.4	20	1.0	0.2 to 0.7	2.4 to 25.4	11.3 to 141.0

From patent publication EP4711368A1 (priority 2023, dated 2024)
